Measurements taken from PubChem BioAssay AID743471 (Broad Institute, 2014).
Activity calls are given as the source filed them.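 How the source made its calls: active means fitted curve drops past -35% activity change at a concentration up to twice the top valid tested dose; inactive means the rest, including activity in the opposite direction.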

Test: viability loss in HepG2 hepatoma cells – cell-based, luminescence, dry powder, set 12, cytotoxicity control, dose response (AID 743471)
Settings: HepG2 viability, ATP luminescence (CellTiter-Glo), 72 h; at 0.8 µM (top of the series)

Compound	activity change, negative = cytotoxicity
CCN(CCO)CCCOc1ccc2c(Nc3cc(CC(=O)Nc4cccc(F)c4)[nH]n3)ncnc2c1	6.31% (inactive)
CC[C@]1(O)CC2CN(CCc3c([nH]c4ccccc34)[C@@](C(=O)OC)(c3cc4c(cc3OC)N(C=O)[C@H]3[C@@](O)(C(=O)OC)[C@H](OC(C)=O)[C@]5(CC)C=CCN6CC[C@]43[C@@H]65)C2)C1 (some centres undefined)	-12.1% (inactive)

Same assay, conditions: HepG2 viability, ATP luminescence (CellTiter-Glo), 72 h; at 1.35 µM (top of the series)

Compound	activity change, negative = cytotoxicity
COc1cc([C@@H]2c3cc4c(cc3[C@@H](O[C@@H]3O[C@@H]5CO[C@@H](C)O[C@H]5[C@H](O)[C@H]3O)[C@H]3COC(=O)[C@H]23)OCO4)cc(OC)c1O	-5.5% (inactive)

Same assay, conditions: HepG2 viability, ATP luminescence (CellTiter-Glo), 72 h; at 8 µM (top of the series)

Compound	activity change, negative = cytotoxicity
COc1cccc(S(=O)(=O)N2CC[C@@H]3[C@@H](CO)Nc4ccc(-c5ccc(C#N)cc5)cc4[C@@H]32)c1	25.7% (inactive)
N#CC1=C(N)Oc2cc3c(cc2C1c1cccc(Br)c1)OCO3 (centres undefined)	-4.83% (inactive)

Same assay, conditions: HepG2 viability, ATP luminescence (CellTiter-Glo), 72 h; at 12 µM (top of the series)

Compound	activity change, negative = cytotoxicity
C[C@@]1(C(=O)Nc2ccc(F)nc2)CCCN1c1nc(Nc2cc(C3CC3)[nH]n2)c2cccn2n1	-31.6% (inactive)
O=C(Cc1ccc(-c2ccc(OCCN3CCOCC3)cc2)cn1)NCc1ccccc1	-10.2% (inactive)
COc1ccc(OC)c(-c2nnc3n2N=C(c2ccc(OC)c(OC)c2)CS3)c1	-16.5% (inactive)
COc1ccc(NC(=O)Nc2ccc3c(c2)C(=O)N([C@@H](C)CO)C[C@H](C)[C@H](CN(C)Cc2ccc4c(c2)OCO4)O3)cc1	-13.2% (inactive)

Same assay, conditions: HepG2 viability, ATP luminescence (CellTiter-Glo), 72 h; at 26 µM (top of the series)

Compound	activity change, negative = cytotoxicity
COc1ccccc1-c1nnc2n1N=C(c1ccc3c(c1)OCO3)CS2	-11.4% (inactive)
CN1c2ccc(-c3ccc(C#N)cc3)cc2[C@H]2[C@H](CCN2S(=O)(=O)c2cccc(F)c2)[C@H]1CO	-20.9% (inactive)
COc1ccc(C2C(C#N)=C(N)Oc3cc(N)ccc32)cc1 (centres undefined)	-5.71% (inactive)
N#CC1=C(N)Oc2cc(N)ccc2C1c1cccc(F)c1 (centres undefined)	-15.7% (inactive)
N#CC1=C(N)Oc2cc(N)ccc2C1c1ccc2ccccc2c1 (centres undefined)	-25.4% (inactive)
Cc1ccc([N+](=O)[O-])cc1S(=O)(=O)N(C)C	-2.85% (inactive)
Cc1ccc(C2C(C#N)=C(N)Oc3cc(N)ccc32)cc1 (centres undefined)	1.29% (inactive)
COc1ccccc1S(=O)(=O)N1CC[C@@H]2[C@@H](CO)Nc3ccc(-c4ccc(C#N)cc4)cc3[C@@H]21	-11.4% (inactive)
C[C@]1(c2nc3c(C(N)=O)cccc3[nH]2)CCCN1	-5.99% (inactive)
N#CC1=C(N)Oc2cc(N)ccc2C1c1ccccc1Cl (centres undefined)	-2.14% (inactive)
CCC(C)(C)C(=O)O[C@H]1C[C@@H](C)C=C2C=C[C@H](C)[C@H](CC[C@@H]3C[C@@H](O)CC(=O)O3)[C@H]21	1.04% (inactive)
CN1c2ccc(-c3ccc(C#N)cc3)cc2[C@H]2[C@H](CCN2S(=O)(=O)c2ccc(F)cc2)[C@H]1CO	20.9% (inactive)
COc1cccc(C2C(C#N)=C(N)Oc3cc(N)ccc32)c1 (centres undefined)	-11.2% (inactive)
N#CC1=C(N)Oc2cc(N)ccc2C1c1ccc(Cl)cc1 (centres undefined)	-15.5% (inactive)
O=C(Nc1c(Cl)cncc1Cl)c1ccc(OC(F)F)c(OCC2CC2)c1	5.78% (inactive)
Cc1ccc(S(=O)(=O)N2CC[C@@H]3[C@@H](CO)Nc4ccc(-c5ccc(C#N)cc5)cc4[C@@H]32)cc1	-7.83% (inactive)
Cc1cccc(C2C(C#N)=C(N)Oc3cc(N)ccc32)c1 (centres undefined)	-14.7% (inactive)
N#Cc1ccc(-c2ccc3c(c2)[C@H]2[C@H](CCN2S(=O)(=O)c2ccccc2F)[C@@H](CO)N3)cc1	-18.6% (inactive)
COc1ccc(S(=O)(=O)N2CC[C@@H]3[C@@H](CO)N(C)c4ccc(-c5ccc(F)cc5)cc4[C@@H]32)cc1	-2.59% (inactive)
Clc1ccccc1-c1nnc2n1N=C(c1ccc3c(c1)OCO3)CS2	-25.1% (inactive)
COC(=O)c1ccc(C2C(C#N)=C(N)Oc3cc(N)ccc32)cc1 (centres undefined)	6.98% (inactive)
CN(C)c1ccc2c(c1)OC(N)=C(C#N)C2c1cccc(F)c1 (centres undefined)	-8.25% (inactive)
COc1cc(Nc2ncc3c(n2)-c2ccc(Cl)cc2C(c2c(F)cccc2OC)=NC3)ccc1C(=O)O	-12.9% (inactive)
N#CC1=C(N)Oc2cc(N)ccc2C1c1cccc(Br)c1 (centres undefined)	-3.92% (inactive)
N#CC1=C(N)Oc2cc(OC(=O)c3ccccc3)ccc2C1c1cccc(Br)c1 (centres undefined)	-8.31% (inactive)
N#CC1=C(N)Oc2cc(N)ccc2C12C(=O)Nc1ccc(Br)cc12 (centres undefined)	-10.7% (inactive)
CCCCc1ccc2nc(NC(=O)OC)[nH]c2c1	-18.5% (inactive)
Cc1c([C@H](C(Cl)Cl)[C@H](O)[C@H]2C[C@H](C)C(=O)O2)ccc2c1C(=O)[C@H]1[C@H]2C[C@@H](Br)[C@@]23O[C@@H](CO[C@H]2O)C[C@]13C	-19.2% (inactive)
COc1ccc(OC)c(-c2nnc3n2N=C(c2ccc(OC)c(OC)c2)CS3)c1	-21.2% (inactive)
COc1ccc(S(=O)(=O)N2CC[C@@H]3[C@H](CO)Nc4ccc(-c5ccc(C#N)cc5)cc4[C@@H]32)cc1	-32.1% (inactive)
